Reference: US20070037825A1, “Enhancing the effect of radioimmunotherapy in the treatment of tumors” (priority 2002, published 2007)
Counter-ions that a name gives are not always drawn. Marks after values point to notes of the source that are not given here.

Key:
LS174T cells = assay: Effect of COMPOUND I mesylate on radiosensitivity of in vitro grown cells; assay type: cell-based, human
LS174T SQ xenografts = assay: Effect of COMPOUND I on radiosensitivity of adenocarcinoma xenografts (external radiation); conditions: P=0.127, Mantel-Cox logrank analysis
[1] = system: LS174T human colorectal adenocarcinoma xenografts; assay: Radioimmunotherapy of SQ LS174T xenografts in athymic mice, with or without COMPOUND I mesylate; conditions: for Relative tumor growth: relative to no treatment = 1

| Molecule | effect on radiosensitivity, combined with radiation (LS174T cells; monolayer, irradiation 1.95 Gy/min, total doses 1 Gy and 6 Gy) | effect on cell cycle (LS174T cells; pharmacologically relevant concentrations) | difference between radiation plus COMPOUND I mesylate and radiation only (LS174T SQ xenografts) | Tq (days) ([1]; quadrupling time calculated on day 10 (*), COMPOUND I mesylate PO BID 2 mg/mouse/day) | Relative tumor growth [1] | effect of combined treatment with COMPOUND I mesylate in vitro (LS174T cells; ^131I-labeled antibody plus COMPOUND I mesylate) | tumor response ([1]; escalating doses) | Tq (days) ([1]; quadrupling time calculated on day 28 (**) after 0.25 mCi ^131I-B72.3 IV) | tumor response ([1]; single dose of 0.5 mCi or similar doses) |
| --- | --- | --- | --- | --- | --- | --- | --- | --- | --- |
| Cc1ccc(NC(=O)c2ccc(CN3CCN(C)CC3)cc2)cc1Nc1nccc(-c2cccnc2)n1 [COMPOUND I mesylate] | not sufficient in vitro to synchronize all cells | Arrest of LS174T cells in the G1 phase | no statistical differences | 7.75* days | 1 |  |  |  |  |
| ^131I-B72.3: iodine-131 labeled anti-TAG72 monoclonal antibody B72.3 (radioimmunoconjugate) (conjugate, chains of the INN, looked up, iodine-131 label) VH: QVQLQQSDAELVKPGASVKISCKASGYTFTDHAIHWAKQKPEQGLEWIGYISPGNDDIKYNEKFKGKATLTADKSSSTAYMQLNSLTSEDSAVYFCKRSYYGHWGQGTTLTVSS VL: DIQMTQSPASLSVSVGETVTITCRASENIYSNLAWYQQKQGKSPQLLVYAATNLADGVPSRFSGSGSGTQYSLKINSLQSEDFGSYYCQHFWGTPYTFGGGTRLEIK |  |  |  |  | 2.4 | neither additive nor synergistic effects are measurable | cures and tumor growth arrest | 18.95** days | growth delay but no cures |
